Values quoted from earlier work as cited in US20070213318A1, “C[…] WITH IMPROVED BLOOD-BRAIN BARRIER PE[…] THE TREATMENT OF DISEASES ACCOMPANIED BY COGNITIVE IMPAIRMENT” (priority 2006, published 2007).
Like-named read-outs stand apart in the source and are kept apart here.

What was measured:
human nAChR subtypes = conditions: below the concentration range at which AChE inhibition takes place

COc1ccc2c3c1O[C@H]1C[C@@H](O)C=C[C@@]31CCN(C)C2 [Galanthamine]
tissue to plasma ratio (T/P) (female rat spleen): ~20
tissue to plasma ratio (T/P) (male and female rat, kidney): 10-15
tissue to plasma ratio (T/P) (male and female rat, salivary and adrenal gland): 7-14
tissue to plasma ratio (T/P) (rat, lung, liver, heart, skeletal muscle and testes): 2-4
concentrations at which the APL effect is observed (human nAChR subtypes): submicromolar concentrations
